Measured values as given in the supplement of paper PMC10307832.

How the values were obtained:
Assay in all cases: relative viability (nuclei count vs DMSO), 5 days (fraction); higher = more cells survive
Imatinib + Palbociclib = compound: Cc1ccc(NC(=O)c2ccc(CN3CCN(C)CC3)cc2)cc1Nc1nccc(-c2cccnc2)n1 [Imatinib] + CC(=O)c1c(C)c2cnc(Nc3ccc(N4CCNCC4)cn3)nc2n(C2CCCC2)c1=O [Palbociclib] (partner 0.5 µM)
In short: (§1)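 After 5 days of treatment, lung cancer cells in 1536-well plates were fixed and stained in a single step (final 0.05% Triton X-100, 1% formaldehyde, 1 ug/ml Hoechst) and their nuclei counted on 4× images. Treatment had been applied by pin tool the day after seeding as one drug alone or as a fixed anchor-drug dose with five library-drug doses (not always all listed) in √10 steps. Relative viability is the nuclei count of treated wells divided by that of vehicle wells, and values are medians of duplicate plates.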

Imatinib + Navitoclax = compound: Cc1ccc(NC(=O)c2ccc(CN3CCN(C)CC3)cc2)cc1Nc1nccc(-c2cccnc2)n1 [Imatinib] + CC1(C)CCC(c2ccc(Cl)cc2)=C(CN2CCN(c3ccc(C(=O)NS(=O)(=O)c4ccc(N[C@H](CCN5CCOCC5)CSc5ccccc5)c(S(=O)(=O)C(F)(F)F)c4)cc3)CC2)C1 [Navitoclax] (partner 0.5 µM)
In short: as §1

Imatinib + Tozasertib = compound: Cc1ccc(NC(=O)c2ccc(CN3CCN(C)CC3)cc2)cc1Nc1nccc(-c2cccnc2)n1 [Imatinib] + Cc1cc(Nc2cc(N3CCN(C)CC3)nc(Sc3ccc(NC(=O)C4CC4)cc3)n2)n[nH]1 [Tozasertib] (partner 0.1 µM)
In short: as §1

Imatinib + Vorinostat = compound: Cc1ccc(NC(=O)c2ccc(CN3CCN(C)CC3)cc2)cc1Nc1nccc(-c2cccnc2)n1 [Imatinib] + O=C(CCCCCCC(=O)Nc1ccccc1)NO [Vorinostat] (partner 1 µM)
In short: as §1

| Cell Line | relative viability (Imatinib + Palbociclib; first compound 0.02 µM) | relative viability (Imatinib + Palbociclib; first compound 0.06325 µM) | relative viability (Imatinib + Palbociclib; first compound 0.2 µM) | relative viability (Imatinib + Palbociclib; first compound 2 µM) | relative viability (Imatinib + Navitoclax; first compound 0.02 µM) | relative viability (Imatinib + Navitoclax; first compound 0.06325 µM) | relative viability (Imatinib + Navitoclax; first compound 0.2 µM) | relative viability (Imatinib + Navitoclax; first compound 0.6325 µM) | relative viability (Imatinib + Navitoclax; first compound 2 µM) | relative viability (Imatinib + Tozasertib; first compound 0.02 µM) | relative viability (Imatinib + Tozasertib; first compound 0.06325 µM) | relative viability (Imatinib + Tozasertib; first compound 0.2 µM) | relative viability (Imatinib + Tozasertib; first compound 0.6325 µM) | relative viability (Imatinib + Tozasertib; first compound 2 µM) | relative viability (Imatinib + Vorinostat; first compound 0.02 µM) | relative viability (Imatinib + Vorinostat; first compound 0.06325 µM) | relative viability (Imatinib + Vorinostat; first compound 0.2 µM) | relative viability (Imatinib + Vorinostat; first compound 2 µM) | relative viability (Imatinib + Palbociclib; first compound 0.6325 µM) | relative viability (Imatinib + Vorinostat; first compound 0.6325 µM) |
| --- | --- | --- | --- | --- | --- | --- | --- | --- | --- | --- | --- | --- | --- | --- | --- | --- | --- | --- | --- | --- |
| NCI-H2023 | 0.537 | 0.494 | 0.387 | 0.345 | 1.08 | 1.23 | 1.12 | 0.958 | 0.898 | 0.461 | 0.319 | 0.254 | 0.259 | 0.18 | 0.846 | 0.376 | 0.615 | 0.614 | – | – |
| NCI-H2087 | 0.192 | – | 0.188 | – | 1.07 | 1.03 | 1.21 | 1.11 | 0.956 | 0.247 | – | 0.206 | 0.202 | 0.183 | 0.806 | – | 0.787 | – | 0.243 | 0.716 |
| NCI-H2405 | 0.534 | 0.57 | 0.533 | 0.572 | 0.984 | – | 0.845 | 0.706 | – | 0.7 | – | 0.767 | 0.671 | 0.609 | 1.06 | – | 1.18 | 0.961 | 0.493 | 0.942 |
| PC-14 | 0.655 | 0.633 | 0.558 | 0.542 | 1.14 | 0.988 | 1.12 | 1.06 | 0.96 | 0.665 | – | 0.592 | 0.591 | 0.516 | 0.902 | 0.472 | 0.8 | 0.791 | 0.524 | 0.56 |
| LK-2 | 0.757 | 0.726 | – | 0.662 | 0.975 | 0.685 | 0.848 | – | 0.84 | 0.173 | 0.181 | 0.159 | 0.139 | 0.176 | 0.323 | 0.246 | 0.286 | 0.159 | – | – |
| HCC-366 | 0.435 | 0.425 | 0.502 | 0.412 | 1.02 | – | 1.13 | 1.09 | 1.07 | 0.193 | – | 0.109 | 0.0574 | 0.0718 | 0.421 | 0.307 | 0.467 | 0.368 | 0.35 | 0.369 |
| LCLC-97TM1 | 0.25 | – | 0.267 | 0.219 | – | – | 0.605 | 0.554 | 0.399 | 0.236 | – | 0.14 | 0.2 | 0.214 | 0.798 | – | 0.959 | 0.767 | 0.172 | 0.855 |
| HCC-827 | 0.474 | 0.557 | 0.516 | 0.455 | 1.05 | 0.947 | 1.08 | 1.05 | 0.973 | 0.404 | 0.486 | 0.407 | 0.407 | 0.421 | 0.797 | 0.906 | 0.858 | 0.684 | 0.461 | 0.788 |
| NCI-H647 | 0.532 | 0.39 | 0.402 | 0.407 | 1.42 | 1.36 | 1.14 | 1.12 | 1.17 | 0.554 | 0.242 | 0.0832 | 0.28 | 0.321 | 0.459 | 0.888 | 0.593 | 0.619 | 0.375 | 0.549 |
| LXF-289 | 0.602 | – | 0.655 | 0.578 | 0.98 | 0.944 | 1.08 | 0.907 | 0.924 | 0.22 | 0.162 | 0.21 | 0.232 | 0.187 | 0.782 | – | 0.798 | 0.783 | 0.556 | 0.736 |
| NCI-H1734 | 0.348 | – | 0.402 | 0.351 | 0.938 | – | 1.11 | 0.758 | – | 0.243 | 0.268 | 0.278 | 0.259 | 0.264 | 0.92 | – | 0.832 | 0.717 | 0.346 | 0.856 |
| SW 1573 | 0.404 | 0.435 | 0.41 | 0.405 | 1.12 | 0.955 | 1.21 | 1.06 | 1.1 | 0.174 | 0.231 | 0.202 | 0.131 | 0.175 | 0.802 | 0.392 | 0.973 | 0.709 | 0.265 | 0.9 |
| UMC-11 | 0.333 | 0.337 | 0.333 | 0.269 | 0.303 | 0.35 | 0.291 | 0.334 | 0.329 | 0.192 | 0.205 | 0.216 | 0.211 | 0.208 | 0.35 | 0.377 | 0.36 | 0.369 | 0.33 | 0.412 |
| H3255 | 0.316 | 0.325 | 0.317 | 0.308 | 0.512 | 0.441 | 0.44 | 0.497 | 0.548 | 0.604 | 0.608 | 0.638 | 0.575 | 0.614 | 0.873 | – | 0.765 | 0.588 | 0.338 | – |
| NCI-H2126 | 0.375 | 0.352 | 0.37 | 0.321 | 0.883 | – | 0.865 | 0.851 | 0.824 | 0.921 | – | 0.872 | 0.352 | 0.739 | 0.702 | 0.582 | 0.789 | 0.818 | 0.368 | 0.724 |
| NCI-H2085 | 0.447 | 0.45 | 0.506 | 0.47 | 1.16 | 1.07 | 1.33 | 1.13 | – | 0.823 | 0.795 | 0.877 | 0.553 | 0.489 | 0.755 | 0.683 | 0.772 | 0.768 | 0.481 | 0.743 |
| LC-2-ad | 0.543 | – | 0.559 | 0.508 | 0.481 | 0.361 | 0.514 | 0.707 | 0.468 | 0.439 | 0.439 | 0.514 | 0.2 | 0.419 | 0.73 | – | 0.754 | 0.693 | 0.5 | 0.707 |
| PC-3 [JPC-3] | 0.581 | – | – | 0.539 | 0.84 | – | 0.789 | 0.811 | 0.687 | 0.911 | – | 0.855 | 0.879 | 0.789 | 0.882 | – | – | 0.727 | 0.763 | 0.899 |
